One assay addresses T1, human CRF2a receptor (Homo sapiens, UniProt Q13324).
T1 construct: expressed in transfected cells; host or cells: TeloHEAC cells
T1 sequence (Q13324 1-411): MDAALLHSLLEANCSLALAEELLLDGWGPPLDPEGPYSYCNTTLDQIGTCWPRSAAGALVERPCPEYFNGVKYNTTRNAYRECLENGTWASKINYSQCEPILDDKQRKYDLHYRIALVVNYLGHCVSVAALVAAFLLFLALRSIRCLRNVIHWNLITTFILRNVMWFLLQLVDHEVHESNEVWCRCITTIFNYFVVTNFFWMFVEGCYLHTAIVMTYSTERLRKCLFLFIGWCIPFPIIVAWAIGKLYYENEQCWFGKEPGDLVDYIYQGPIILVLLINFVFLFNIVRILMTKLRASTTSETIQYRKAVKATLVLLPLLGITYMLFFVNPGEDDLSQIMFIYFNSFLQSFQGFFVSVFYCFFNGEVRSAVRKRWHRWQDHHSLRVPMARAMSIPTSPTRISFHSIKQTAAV
Put plainly: Activity at human CRF2a receptor, cAMP functional assay in TeloHEAC cells. The settings on record: TeloHEAC cells stably expressing human CRF2a receptor, relative to urocortin 2 (100 nM = 100%). The class given is cell-based. The method in brief: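 TeloHEAC cells stably expressing human CRF2a (10000 cells/well, suspended in HBSS/20 mM HEPES with 2 mM IBMX) were exposed to compounds for 30 min at 37 °C. cAMP was read as the 665/620 nm fluorescence ratio after 1 h at room temperature. EC50 was derived relative to 100 nM urocortin 2, set as 100%.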

A further assay has as its target T2, CFR1R receptor (Homo sapiens, UniProt P34998).
T2 construct: host or cells: CHO-K1 (clone 2)
T2 sequence (P34998 24-415): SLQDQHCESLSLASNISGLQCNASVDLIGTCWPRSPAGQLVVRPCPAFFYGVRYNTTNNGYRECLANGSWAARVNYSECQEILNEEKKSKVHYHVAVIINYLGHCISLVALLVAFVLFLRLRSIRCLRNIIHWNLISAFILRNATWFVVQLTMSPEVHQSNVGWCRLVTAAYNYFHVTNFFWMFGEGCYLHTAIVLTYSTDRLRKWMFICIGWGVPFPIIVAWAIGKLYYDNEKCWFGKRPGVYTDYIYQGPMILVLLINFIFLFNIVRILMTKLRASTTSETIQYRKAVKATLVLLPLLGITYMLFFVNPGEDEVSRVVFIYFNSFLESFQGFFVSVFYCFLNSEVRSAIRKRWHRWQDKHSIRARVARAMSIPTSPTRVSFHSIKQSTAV
Put plainly: Activity at anti-target CFR1R receptor, cAMP assay in CRF1R-overexpression CHO-K1 cells. The settings on record: 100% = Sauvagine at 100 nM; for EC50: cAMP. The class given is cell-based. Put shortly: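 Clone 2; cryopreserved stocks (10% DMSO); 4000 cells/well final; 100% activation = Sauvagine 100 nM; otherwise as TeloHAEC protocol.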
(Cyclic AMP is a second messenger, typically raised through Gs and lowered through Gi signalling.)

*1 amine or outer side, *2 acyl side, *3 side chain or, on linkers, in order; H or OH if unused. Where a SMILES comes first, the peptide text is derived from it. Side-chain parts run from the residue outwards. [ ]: non-standard residue; d: D form. The star is where a group is joined. C16 diacid = O=C(O)CCCCCCCCCCCCCCC(=O)*; γGlu = O=C(O)[C@H](CCC(=O)[*:2])N[*:1]; NMeI = CC[C@H](C)[C@H](NC)C(=O)O; αMeL = CC(C)C[C@](C)(N)C(=O)O; Abu = CC[C@H](N)C(=O)O; Dap = NC[C@H](N)C(=O)O

By EC50 is commonly meant the concentration needed to bring the measured effect to its halfway point. Low values mean greater potency, high ones weaker potency. As for `CC[C@H](C)[C@H](NC)C(=O)N[C@H](C(=O)N[C@@H](CC(C)C)C(=O)N[C@@H](CO)C(=O)N[C@@H](CC(C)C)C(=O)N[C@@H](CC(=O)O)C(=O)N[C@@H](C(=O)N1CCC[C@H]1C(=O)N[C@H](C(=O)N[C@@H](CCCCN)C(=O)N[C@@H](CC(C)C)C(=O)N[C@@H](CCCCNC(=O)CC[C@H](NC(=O)CCCCCCCCCCCCCCC(=O)O)C(=O)O)C(=O)N[C@@H](CCCCN)C(=O)N[C@H](C(=O)N[C@@H](CC(C)C)C(=O)N[C@@H](CC(C)C)C(=O)N[C@@H](CCC(=O)O)C(=O)N[C@@H](CCC(N)=O)C(=O)N[C@@H](CCC(=O)O)C(=O)N[C@@H](CCCCN)C(=O)N[C@@H](CCC(N)=O)C(=O)N[C@@H](CCCCN)C(=O)N[C@@H](CCCCN)C(=O)N[C@@H](CCC(N)=O)C(=O)N[C@@H](CCCNC(=N)N)C(=O)N[C@@H](CCC(=O)O)C(=O)N[C@@H](CCC(N)=O)C(=O)N[C@@H](C)C(=O)N[C@@H](CCC(=O)O)C(=O)N[C@H](C(=O)N[C@@H](CC(N)=O)C(=O)N[C@H](C(=O)N[C@@H](CCC(N)=O)C(=O)N[C@H](C(=O)N[C@@H](CC(C)C)C(=O)N[C@@H](C)C(=O)N[C@@H](CCC(N)=O)C(=O)N[C@H](C(N)=O)C(C)C)[C@@H](C)CC)C(C)C)[C@@H](C)O)[C@@H](C)CC)[C@@H](C)CC)C(C)C)C(C)C` [compound 66] (H-[NMeI]VLSLD[dV]PIKLK([γGlu-C16 diacid])KILLEQEKQKKQREQAETNVQILAQV-NH2), the EC50 on human CRF2a receptor was determined as 1.05 nM. In addition, on CFR1R receptor, the “Emax (% I)” value was found to be 4 % I and the EC50 was over 250 nM.

In turn, `CC[C@H](C)[C@H](NC)C(=O)N[C@H](C(=O)N[C@@H](CC(C)C)C(=O)N[C@@H](CO)C(=O)N[C@@H](CC(C)C)C(=O)N[C@@H](CC(=O)O)C(=O)N[C@@H](C(=O)N1CCC[C@H]1C(=O)N[C@H](C(=O)N[C@@H](CCCCN)C(=O)N[C@@](C)(CC(C)C)C(=O)N[C@@H](CCCCNC(=O)CC[C@H](NC(=O)CCCCCCCCCCCCCCC(=O)O)C(=O)O)C(=O)N[C@@H](CCCCN)C(=O)N[C@H](C(=O)N[C@@H](CC(C)C)C(=O)N[C@@H](CC(C)C)C(=O)N[C@@H](CCC(=O)O)C(=O)N[C@@H](CCC(N)=O)C(=O)N[C@@H](CCC(=O)O)C(=O)N[C@@H](CCCCN)C(=O)N[C@@H](CCC(N)=O)C(=O)N[C@@H](CCCCN)C(=O)N[C@@H](CCCCN)C(=O)N[C@@H](CCC(N)=O)C(=O)N[C@@H](CCCNC(=N)N)C(=O)N[C@@H](CCC(=O)O)C(=O)N[C@@H](CCC(N)=O)C(=O)N[C@@H](C)C(=O)N[C@@H](CCC(=O)O)C(=O)N[C@H](C(=O)N[C@@H](CC(N)=O)C(=O)N[C@H](C(=O)N[C@@H](CCC(N)=O)C(=O)N[C@H](C(=O)N[C@@H](CC(C)C)C(=O)N[C@@H](C)C(=O)N[C@@H](CCC(N)=O)C(=O)N[C@H](C(N)=O)C(C)C)[C@@H](C)CC)C(C)C)[C@@H](C)O)[C@@H](C)CC)[C@@H](C)CC)C(C)C)C(C)C` [compound 67] (H-[NMeI]VLSLD[dV]PIK[αMeL]K([γGlu-C16 diacid])KILLEQEKQKKQREQAETNVQILAQV-NH2) displayed an EC50 at human CRF2a receptor of 0.34 nM. Further, on CFR1R receptor, the “Emax (% I)” value amounted to 8 % I and the EC50 was over 250 nM.

In the case of `CC[C@H](C)[C@H](NC)C(=O)N[C@H](C(=O)N[C@@H](CC(C)C)C(=O)N[C@@H](CO)C(=O)N[C@@H](CC(C)C)C(=O)N[C@@H](CC(=O)O)C(=O)N[C@@H](C(=O)N1CCC[C@H]1C(=O)N[C@H](C(=O)N[C@@H](CCCCN)C(=O)N[C@@H](CC(C)C)C(=O)N[C@@H](CCCCNC(=O)CC[C@H](NC(=O)CCCCCCCCCCCCCCC(=O)O)C(=O)O)C(=O)N[C@@H](CCCCN)C(=O)N[C@H](C(=O)N[C@@H](CC(C)C)C(=O)N[C@@H](CC(C)C)C(=O)N[C@@H](CCC(=O)O)C(=O)N[C@@H](CCC(N)=O)C(=O)N[C@@H](CCC(=O)O)C(=O)N[C@@H](CCCCN)C(=O)N[C@@H](CCC(N)=O)C(=O)N[C@@H](CCCCN)C(=O)N[C@@H](CCCCN)C(=O)N[C@@H](CCC(N)=O)C(=O)N[C@@H](CCCNC(=N)N)C(=O)N[C@@H](CCC(=O)O)C(=O)N[C@@H](CCC(N)=O)C(=O)N[C@@H](C)C(=O)N[C@@H](CCC(=O)O)C(=O)N[C@H](C(=O)N[C@@H](CC(N)=O)C(=O)N[C@@H](C)C(=O)N[C@@H](CCC(N)=O)C(=O)N[C@H](C(=O)N[C@@H](CC(C)C)C(=O)N[C@@H](C)C(=O)N[C@@H](CCC(N)=O)C(=O)N[C@H](C(N)=O)C(C)C)[C@@H](C)CC)[C@@H](C)O)[C@@H](C)CC)[C@@H](C)CC)C(C)C)C(C)C` [compound 68] (H-[NMeI]VLSLD[dV]PIKLK([γGlu-C16 diacid])KILLEQEKQKKQREQAETNAQILAQV-NH2), the EC50 at human CRF2a receptor came out at 0.05 nM. On CFR1R receptor, the “Emax (% I)” value is 8 % I and the EC50 is over 250 nM.

For `CC[C@H](NC(=O)[C@H](CC(N)=O)NC(=O)[C@@H](NC(=O)[C@H](CCC(=O)O)NC(=O)[C@H](C)NC(=O)[C@H](CCC(N)=O)NC(=O)[C@H](CCC(=O)O)NC(=O)[C@H](CCCNC(=N)N)NC(=O)[C@H](CCC(N)=O)NC(=O)[C@H](CCCCN)NC(=O)[C@H](CCCCN)NC(=O)[C@H](CCC(N)=O)NC(=O)[C@H](CCCCN)NC(=O)[C@H](CCC(=O)O)NC(=O)[C@H](CCC(N)=O)NC(=O)[C@H](CCC(=O)O)NC(=O)[C@H](CC(C)C)NC(=O)[C@H](CC(C)C)NC(=O)[C@@H](NC(=O)[C@H](CCCCN)NC(=O)[C@H](CCCCNC(=O)CC[C@H](NC(=O)CCCCCCCCCCCCCCC(=O)O)C(=O)O)NC(=O)[C@H](CC(C)C)NC(=O)[C@H](CCCCN)NC(=O)[C@@H](NC(=O)[C@@H]1CCCN1C(=O)[C@H](NC(=O)[C@H](CC(=O)O)NC(=O)[C@H](CC(C)C)NC(=O)[C@H](CO)NC(=O)[C@H](CC(C)C)NC(=O)[C@@H](NC(=O)[C@@H](NC)[C@@H](C)CC)C(C)C)C(C)C)[C@@H](C)CC)[C@@H](C)CC)[C@@H](C)O)C(=O)N[C@@H](CCC(N)=O)C(=O)N[C@H](C(=O)N[C@@H](CC(C)C)C(=O)N[C@@H](C)C(=O)N[C@@H](CCC(N)=O)C(=O)N[C@H](C(N)=O)C(C)C)[C@@H](C)CC` [compound 69] (H-[NMeI]VLSLD[dV]PIKLK([γGlu-C16 diacid])KILLEQEKQKKQREQAETN[Abu]QILAQV-NH2), the EC50 was 0.09 nM at human CRF2a receptor and over 250 nM at CFR1R receptor. Also, the “Emax (% I)” value on CFR1R receptor worked out at 3 % I.

Take `CC[C@H](C)[C@H](NC)C(=O)N[C@H](C(=O)N[C@@H](CC(C)C)C(=O)N[C@@H](CO)C(=O)N[C@@H](CC(C)C)C(=O)N[C@@H](CC(=O)O)C(=O)N[C@@H](C(=O)N1CCC[C@H]1C(=O)N[C@H](C(=O)N[C@@H](CCCCN)C(=O)N[C@@H](CC(C)C)C(=O)N[C@@H](CCCCNC(=O)CC[C@H](NC(=O)CCCCCCCCCCCCCCC(=O)O)C(=O)O)C(=O)N[C@@H](CCCCN)C(=O)N[C@H](C(=O)N[C@@H](CC(C)C)C(=O)N[C@@H](CC(C)C)C(=O)N[C@@H](CCC(=O)O)C(=O)N[C@@H](CCC(N)=O)C(=O)N[C@@H](CCC(=O)O)C(=O)N[C@@H](CCCCN)C(=O)N[C@@H](CCC(N)=O)C(=O)N[C@@H](CCCCN)C(=O)N[C@@H](CCCCN)C(=O)N[C@@H](CCC(N)=O)C(=O)N[C@@H](CCCNC(=N)N)C(=O)N[C@@H](CCC(=O)O)C(=O)N[C@@H](CCC(N)=O)C(=O)N[C@@H](C)C(=O)N[C@@H](CCC(=O)O)C(=O)N[C@H](C(=O)N[C@@H](CC(N)=O)C(=O)N[C@@H](CN)C(=O)N[C@@H](CCC(N)=O)C(=O)N[C@H](C(=O)N[C@@H](CC(C)C)C(=O)N[C@@H](C)C(=O)N[C@@H](CCC(N)=O)C(=O)N[C@H](C(N)=O)C(C)C)[C@@H](C)CC)[C@@H](C)O)[C@@H](C)CC)[C@@H](C)CC)C(C)C)C(C)C` [compound 70] (H-[NMeI]VLSLD[dV]PIKLK([γGlu-C16 diacid])KILLEQEKQKKQREQAETN[Dap]QILAQV-NH2): the EC50 at human CRF2a receptor is 0.17 nM. Also, at CFR1R receptor, the “Emax (% I)” value worked out at 0 % I and the EC50 was over 250 nM.
